Experimental data from publication PMC10098121, “Amphipathic barbiturates as marine product mimics with cytolytic and immunogenic effects on head and neck squamous cell carcinoma cell lines” (Frontiers in Pharmacology, 2023).

How the values were obtained:
[1] = test system: human red blood cells; assay: Hemolysis assay; type: cell-based; conditions: for EC50: Homo sapiens, Erythrocyte, 1 h, 37°C, highest concentration tested 500 μM, average of three experiments, read-out: EC50 hemolytic activity against human red blood cells
Experimental: The hemolytic effect of the MPMs was determined using a hemolysis assay as previously described ([Paulsen et al., 2021]). Briefly, hemolysis was determined using a heparinized fraction (10 IU/mL) of freshly drawn blood. The blood collected in ethylenediaminetetraacetic acid-containing test tubes (Vacutest, KIMA, Arzergrande, Italy) was used for the determination of the hematocrit (hct). The heparinized blood was washed 3 × with pre-warmed phosphate-buffered saline (PBS) and adjusted to a final hct of 4%. MPMs in DMSO (50 mM) were added to a 96-well polypropylene V-bottom plate (NUNC, Fisher Scientific, Oslo, Norway) and serially diluted. The test concentration range was 4–500 μM with DMSO contents ≤1%. A solution of 1% triton X-100 was used as a positive control for 100% hemolysis. As a negative control, a solution of 1% DMSO in PBS was included. Red blood cells (1% v/v final concentration) were added to the well plate and incubated at 37°C and 800 rpm for 1 h. After centrifugation (5 min, 3000 g), 100 μL from each well was transferred to a 96-well flat-bottomed microtiter plate, and absorbance was measured at 545 nm with a microplate reader (VersaMaxTM, Molecular Devices, Sunnyvale, CA, United States). The percentage of hemolysis was calculated as the ratio of the absorbance in the MPM treated and surfactant-treated samples, corrected for the PBS background. Three independent experiments were performed, and EC50 values are presented as averages.

[2] = test system: UT-SCC-24A cells; assay: Flow cytometric detection of apoptosis (Annexin V/PI); type: cell-based, human; conditions: 24 h
Experimental: HSC-3 and UT-SCC-24A cells were seeded, 300,000 cells/well, in 6-well plates and left to adhere overnight. The media was then removed and replaced by 2 ml complete DMEM/F-12 containing 5, 7.5, 10 or 20 µM of MPM-2:0, MPM-6:0, MPM-3:2 or MPM-4:2, or 50 µM cisplatin. Some cells were left untreated. The cells were then incubated for 24 h. Next, the cell supernatants were collected before the cells were trypsinized and spun down with the supernatants. For the staining, an apoptosis detection kit was used (#88-8005-74, Thermo Fisher Scientific). The cells were washed once in PBS and once in 1x binding buffer before being incubated with FITC labeled Annexin V diluted 1:25 in 1 × binding buffer for 15 min. Next the cells were washed in 1 × binding buffer before being incubated with PI diluted 1:100 in 1 × binding buffer for at least 5 min before analysis was performed on the LSR Fortessa (BD Biosciences, CA, United States). Analyses were performed in FlowJo™ v.10 (https://www.flowjo.com/).

[3] = test system: seven HNSCC cell lines and one normal oral fibroblast cell line (NOF); assay: High throughput drug screening, statements on the whole panel; type: cell-based, human; conditions: 72 h, DSS
Experimental: The MPMs were screened against a panel of […] different cell lines (HSC-3, UT-SCC-8, UT-SCC-24A, UT-SCC-24B, UT-SCC-42A, UT-SCC-42B and NOF) at the High Throughput Biomedicine Unit (HTB) at the Institute for Molecular Medicine Finland (FIMM). On day 1, black-walled 384-well plates were coated with 5 µl diluted myogel (0.5 mg/ml) per well using an automated reagent dispenser (MultiFlo FX, BioTek, Winooski, VT, United States). On day 2, 500 cells per well were seeded in 20 µl of complete media using the MultiFlo FX (BioTek), and the cells were left to adhere overnight. On day 3, the MPMs, cisplatin, DMSO and Benzethonium chloride were added to the cells using an automatic liquid handler (Echo 550, Labcyte Inc., San Jose, CA, United States). Cisplatin and the MPMs were added to yield five different concentrations in a ten-fold dilution series ranging from 10 to 100,000 nM. Each concentration was tested in triplicate wells. DMSO (0.1%) and benzethonium chloride (100 µM) served as negative and positive control, respectively. Three hours later, some of the plates were irradiated with 2 Gy in a gamma irradiator (OB29/4, STS, Braunschweig, Germany). All plates were taken to the irradiation room to ensure similar handling of the plates. 72 h later, the plates were cooled to room temperature before 25 µl of CellTiter-Glo 2.0 reagent (Promega, Madison, WI, USA) was added to each well using the MultiFlo FX (BioTek). Next, the plates were centrifuged for 5 min at 1,000 rpm before the luminescence signal was measured with the PHERAstar FS HT reader (BMG LABTECH GmbH, Ortenberg, Germany). The raw data was analyzed with the Breeze software (https://breeze.fmm.fi), which normalized the luminescence signal from treated cells against the signal from negative and positive control cells to calculate the percentage of inhibition and generate dose-response curves, which were then used to calculate drug sensitivity scores (DSS). The DSS is a parameter which combines the IC50, the slope of the dose-response curve, and the minimum and maximum responses into a single metric, as previously described ([Yadav et al., 2014]). Quality control was performed by calculation of the Z′-factor, which was >0.7 for all cell lines, indicating high quality of the assay ([Zhang et al., 1999]).

[4] = test system: HSC-3 cells; assay: Scratch wound invasion assay (myogel-collagen); type: cell-based, human; conditions: HSC-3, 10 µM, 24 h; control cells approximately 24 h
Experimental: Two Incucyte image lock 96-well plates (#4379, Sartorius) were coated with 50 µl myogel (0.5 mg/ml) per well. The next day, the media remaining in the wells was removed before HSC-3 cells were seeded at a density of 25,000 cells/well in 100 µl. The cells were left to adhere, and the following day, a scratch was made in the middle of each well using the Incucyte 96-pin WoundMaker tool (Sartorius). The wells were then washed once with media. For the migration assay, the media in each well was then replaced with 100 µl of media containing 0.1, 1 or 10 µM of MPM-2:0 or MPM-4:2. For the invasion assay, the media was replaced by 50 µl of a gel consisting of serum-free media, myogel (2.4 mg/ml), type I rat tail collagen (0.8 mg/ml, Corning, NY, USA) and 0.1, 1 or 10 µM of MPM-2:0 or MPM-4:2. The plate was incubated at 37°C for 1 h to let the gel solidify. Next, 100 µl of media, also containing 0.1, 1 or 10 µM of MPM-2:0 or MPM-4:2 was added on top of the gel. Both the migration and invasion plates were placed in the Incucyte S3 (Sartorius) and imaged at ×10 magnification every 2 hours for 24 h in total. The Incucyte software was used to analyze the relative wound density.

SMILES	EC50 [1] [µM]	Annexin V−/PI+ population (in words) [2]	potency / effect on viability over the cell line panel (in words) [3]	hemolytic activity against red blood cells (in words) ([1]; test range 4–500 μM)	apoptotic (Annexin V+/PI−) population (in words) ([2]; cisplatin 50 µM, MPMs 5-20 µM)	wound closure in invasion assay (in words) [4]
CN(C)CCCN1C(=O)N(CCCN(C)C)C(=O)C(CCCc2ccccc2)(CCCc2ccccc2)C1=O [MPM-3:2]	> 500	induced a large population of Annexin V−/PI + UT-SCC-24A cells	had the highest DSS			
NCCCCCCN1C(=O)N(CCCCCCN)C(=O)C(CCCc2ccccc2)(CCCc2ccccc2)C1=O [MPM-6:0]	92		had the highest DSS	the most hemolytic compound		
N.N.[Cl][Pt][Cl] [Cisplatin, cisplatin, reference compound]					small, but clearly apoptotic (Annexin V+/PI−) population	
NCCN1C(=O)N(CCN)C(=O)C(CCCc2ccccc2)(CCCc2ccccc2)C1=O [MPM-2:0]	379		had the highest DSS			induced cell death so quickly that it was not possible to study the effect on migration or invasion
CN(C)CCCCN1C(=O)N(CCCCN(C)C)C(=O)C(CCCc2ccccc2)(CCCc2ccccc2)C1=O [MPM-4:2]	> 500	induced a large population of Annexin V−/PI + UT-SCC-24A cells	had the highest DSS			never managed to close the wound
